These results are taken from ChEMBL document CHEMBL5241136, “Design, synthesis and evaluation of heterocyclic 2-phenylacetate derivatives as water-soluble rapid recovery hypnotics” (Bioorg Med Chem Lett, 2023).

One may read the logP as a log measure of how a compound divides between an organic and an aqueous phase. In general, ED50 refers to the dose at which the effect has come halfway, by size or by number of responders. As a reminder, the LD50 is the dose at which mortality reaches 50%. What is called inhibition is the relative decrease from the control value, in per cent. Read a low inhibition as little suppression.

A short description of data set [1]: n-Octanol/water partition coefficient, logP of the compound. The format is physicochemical. As to conditions: n-octanol/water; read-out: logP.
Data set [2] relates to Mus musculus. In words: Anesthetic activity in mouse assessed as concentration required to induce hypnotic effect. In kind it is functional.
A short description of data set [3]: Toxicity in mouse assessed as lethal dose. As to conditions: in vivo.
Data set [4] can be described thus: Therapeutic index, ratio of LD50 for toxicity in mouse to HD50 for anesthetic activity in mouse assessed as concentration required to induce hypnotic effect. As to conditions: read-out: TI.
Data set [5] has as its system Mus musculus. The experiment in a line: Anesthetic activity in mouse assessed as onset time. In kind it is functional.
The test system of data set [6] is Mus musculus. The experiment in a line: Anesthetic activity in mouse assessed as time duration of loss of righting reflex. In kind it is functional.
Data set [7] has as its system Mus musculus. The experiment in a line: Anesthetic activity in mouse assessed as time to walk. The format is functional.
Data set [8] relates to Mus musculus. The experiment in a line: Anesthetic activity in mouse assessed as time to behavioral recovery. The format is functional.
For data set [9], the system named is Rattus norvegicus. In words: Anesthetic activity in rat assessed as concentration required to induce hypnotic effect. In kind it is functional.
Data set [10] in a line: Toxicity in rat assessed as lethal dose. As to conditions: in vivo.
Data set [11] is described as follows: Therapeutic index, ratio of LD50 for toxicity in rat to HD50 for anesthetic activity in rat assessed as concentration required to induce hypnotic effect. The note with it: read-out: TI.
In data set [12] the test system is Oryctolagus cuniculus. The experiment in a line: Anesthetic activity in rabbit assessed as concentration required to induce hypnotic effect. In kind it is functional.
A short description of data set [13]: Toxicity in rabbit assessed as lethal dose. Further details: species or system Oryctolagus cuniculus. The note with it: in vivo.
Data set [14] in a line: Therapeutic index, ratio of LD50 for toxicity in rabbit to HD50 for anesthetic activity in rabbit assessed as concentration required to induce hypnotic effect. The note with it: read-out: TI.
The subject of data set [15] is Rattus norvegicus. In words: Anesthetic activity in rat assessed as onset time. The format is functional.
Data set [16] deals with Rattus norvegicus. The experiment in a line: Anesthetic activity in rat assessed as time duration of loss of righting reflex. In kind it is functional.
Data set [17] has as its system Rattus norvegicus. In words: Anesthetic activity in rat assessed as time to walk. In kind it is functional.
Data set [18] relates to Rattus norvegicus. In words: Anesthetic activity in rat assessed as time to behavioral recovery. The format is functional.
The test system of data set [19] is Oryctolagus cuniculus. The experiment in a line: Anesthetic activity in rabbit assessed as onset time. In kind it is functional.
In data set [20] the test system is Oryctolagus cuniculus. The experiment in a line: Anesthetic activity in rabbit assessed as time duration of loss of righting reflex. The format is functional.
In data set [21] the test system is Oryctolagus cuniculus. In words: Anesthetic activity in rabbit assessed as time to walk. The format is functional.
Data set [22] concerns the target GABA-A receptor; anion channel (Homo sapiens) (UniProt P14867+P47870+P18507+P28472+P48169+Q99928+Q9UN88+P34903+O00591+O14764+Q8N1C3+P18505+P78334+P47869+P31644+Q16445). In words: Inhibition of GABAA receptor (unknown origin) at 50 uM by radioligand receptor binding assay relative to control. In kind it is protein-complex assay.

In the case of `CCCOC(=O)Cc1ccc(OCC(=O)N2CCOCC2)c(OCC)c1`, the logP in data set [1] was 1.4. The ED50 in data set [2] is 32.2 mg/kg; in [9], 12.2 mg/kg; in data set [12] it was 6.5 mg/kg. The 50% lethal dose (LD50) stood at 200 mg/kg in data set [3], 123 mg/kg in data set [10] and 108 mg/kg in data set [13]. Also, the selectivity ratio in data set [4] was found to be 6.2; in data set [11] it was 10.1; in [14] it was 16.6. Further, the Time in data set [5] is on record as 6.7 s; in [6], 104.8 s; in data set [7], 46.8 s; in data set [8], 89.6 s; in data set [15], 9.2 s; in data set [16] it was 81.2 s. Further, the Time in data set [17] is reported as 37.9 s; in data set [18], 69.6 s; in data set [19], 21.3 s; in [20] it was 211.4 s; in data set [21] it was 79.6 s. In [22], the inhibition amounted to 64.3%.

Regarding `CC(C)c1cccc(C(C)C)c1O` [PROPOFOL], the log partition coefficient (logP) in data set [1] came to 4.2. Further, the results for the ED50 in data set [2] and in [12] were 11.9 mg/kg and 3.7 mg/kg, respectively. Also, the figures for the selectivity ratio in [4] and in data set [14] were 5.1 and 5.4, respectively. The Time in [5] is listed as 8.1 s; in data set [6], 240.9 s; in data set [7], 46.5 s; in data set [8] it was 242.7 s; in data set [15] it was 10.1 s; in data set [17] it was 286.5 s. Further, the Time in data set [18] turned out to be 335.8 s; in [19] it was 21.7 s; in [20], 326.6 s; in [21], 425.3 s. The 50% lethal dose (LD50) in [13] worked out at 20.2 mg/kg.

Turning to `CCCOC(=O)Cc1ccc(OCC(=O)N(CC)CC)c(OC)c1` [PROPANIDID], the median effective dose (ED50) in [2] came to 20.9 mg/kg; in data set [12], 5.1 mg/kg. Besides, the Time in [5] is on record as 6.7 s; in data set [6], 89.6 s; in [7], 56.3 s; in data set [8], 83.9 s; in data set [15], 16.3 s; in data set [17], 58.7 s. The Time in data set [18] worked out at 79.9 s; in [19] it was 22.6 s; in [20], 265.4 s; in data set [21], 124.5 s.

As to `CCOc1cc(CC(=O)OC(C)C)ccc1OCC(=O)N1CCOCC1`, the logP in data set [1] came to 1.2. Besides, the values for the ED50 in data set [2], in data set [9] and in data set [12] were 30.8 mg/kg, 11.4 mg/kg and 7.4 mg/kg, respectively. Moreover, the LD50 turned out to be 200 mg/kg in data set [3], 128 mg/kg in [10] and 112 mg/kg in [13]. Further, the selectivity ratio in [4] turned out to be 6.5; in data set [11], 11.2; in data set [14] it was 15.2. Further, the Time is on record as 7.5 s in [5]; 116.8 s in [6]; 54.9 s in data set [7]; 96.8 s in data set [8]; 11.1 s in [15]; 84.6 s in [16]. The Time came to 32.6 s in data set [17]; 61.7 s in data set [18]; 19.9 s in data set [19]; 188.6 s in data set [20]; 81.4 s in data set [21]. In addition, the inhibition in [22] stood at 76.8%.

Turning to `CCOC(=O)Cc1ccc(OCC(=O)N2CCOCC2)c(OC)c1`, the logP in data set [1] turned out to be 1.4. In addition, in data set [2], the ED50 turned out to be 44.8 mg/kg. Further, the LD50 in [3] came to 278 mg/kg. The selectivity ratio in data set [4] stood at 6.2. Also, the inhibition in [22] is 52.9%.

Regarding `CCOC(=O)Cc1ccc(OCC(=O)N2CCOCC2)c(OCC)c1`, in [1], the log partition coefficient (logP) was 1.1. Besides, the median effective dose (ED50) worked out at 35.5 mg/kg in [2], 10.5 mg/kg in data set [9] and 7.6 mg/kg in [12]. The results for the 50% lethal dose (LD50) in data set [3], in [10] and in [13] were 227 mg/kg, 89.3 mg/kg and 131 mg/kg, respectively. Also, the selectivity ratio in [4] came to 6.4; in [11], 8.5; in [14], 17.3. Besides, the Time in data set [5] turned out to be 7.6 s; in [6], 112.9 s; in data set [7], 39.8 s; in data set [8], 69.3 s; in data set [15], 8.7 s; in [16] it was 78.9 s. Further, the Time in data set [17] is recorded as 25.8 s; in data set [18], 65.8 s; in [19] it was 24.6 s; in data set [20], 197.2 s; in [21] it was 96.6 s. In data set [22], this compound showed an inhibition of 62.8%.

For the compound `CCCOC(=O)Cc1ccc(OCC(=O)N(CC)CC)c(OCC)c1` [AZD-3043], in data set [1], the logP worked out at 2.8. For the same compound, the results for the ED50 in data set [2] and in data set [12] were 17.6 mg/kg and 4.6 mg/kg, respectively. The Time stood at 5.6 s in data set [5]; 63.8 s in data set [6]; 22.9 s in data set [7]; 89.6 s in data set [8]; 12.4 s in data set [15]; 38.4 s in data set [17]. Besides, the Time was found to be 56.9 s in data set [18], 19.8 s in data set [19], 221.6 s in [20] and 89.6 s in data set [21].

For the compound `COc1cc(CC(=O)OC(C)C)ccc1OCC(=O)N1CCOCC1`, in [1], the lipophilicity (logP) was determined as 1.3. Moreover, the median effective dose (ED50) in [2] is 46.8 mg/kg. Further, the median lethal dose (LD50) in data set [3] was found to be 276 mg/kg. Moreover, the selectivity ratio in data set [4] was 5.9. The compound further returned an inhibition in data set [22] of 35.7%.
